Measurements published in PubChem BioAssay (NCI).
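Five compound concentrations were applied to cells in 96-well plates for 48 hours; endpoints were derived by simple linear interpolation of the resulting dose-response curve. The concentration for full growth arrest is given as TGI.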

Legend:
Assay in all cases: inhibition of tumour cell growth, NCI panel, 48 h
SNB-19 CNS = test system: SNB-19 CNS
HT29 colon = test system: HT29 colon
U251 CNS = test system: U251 CNS
SK-MEL-5 melanoma = test system: SK-MEL-5 melanoma
SF-268 CNS = test system: SF-268 CNS
HOP-62 NSCLC = test system: HOP-62 NSCLC
IGROV1 ovarian = test system: IGROV1 ovarian
T-47D breast = test system: T-47D breast
MDA-MB-231 breast = test system: MDA-MB-231 breast
NCI-H23 lung = test system: NCI-H23 lung
M14 melanoma = test system: M14 melanoma
K-562 leukemia = test system: K-562 leukemia
SNB-75 CNS = test system: SNB-75 CNS
A549 NSCLC = test system: A549 NSCLC
HS 578T breast = test system: HS 578T breast
HL-60(TB) leukemia = test system: HL-60(TB) leukemia
EKVX NSCLC = test system: EKVX NSCLC
SK-MEL-2 melanoma = test system: SK-MEL-2 melanoma
HCT-116 colon = test system: HCT-116 colon
MOLT-4 leukemia = test system: MOLT-4 leukemia
SW-620 colon = test system: SW-620 colon
HCC-2998 colon = test system: HCC-2998 colon
RPMI-8226 leukemia = test system: RPMI-8226 leukemia
ACHN renal = test system: ACHN renal
A498 renal = test system: A498 renal
CAKI-1 renal = test system: CAKI-1 renal
786-0 renal = test system: 786-0 renal
OVCAR-3 ovarian = test system: OVCAR-3 ovarian
CCRF-CEM leukemia = test system: CCRF-CEM leukemia
PC-3 prostate = test system: PC-3 prostate
RXF 393 renal = test system: RXF 393 renal
SK-OV-3 ovarian = test system: SK-OV-3 ovarian
NCI-H226 lung = test system: NCI-H226 lung
SR leukemia = test system: SR leukemia
SN12C renal = test system: SN12C renal
DU-145 prostate = test system: DU-145 prostate
OVCAR-8 ovarian = test system: OVCAR-8 ovarian
COLO 205 colon = test system: COLO 205 colon
MDA-N = test system: MDA-N
MDA-MB-435 = test system: MDA-MB-435
TK-10 renal = test system: TK-10 renal
NCI/ADR-RES ovarian = test system: NCI/ADR-RES ovarian
OVCAR-4 ovarian = test system: OVCAR-4 ovarian
SF-295 CNS = test system: SF-295 CNS
UO-31 renal = test system: UO-31 renal
LOX IMVI melanoma = test system: LOX IMVI melanoma
MALME-3M melanoma = test system: MALME-3M melanoma
NCI-H522 lung = test system: NCI-H522 lung
SK-MEL-28 melanoma = test system: SK-MEL-28 melanoma
MCF7 breast = test system: MCF7 breast
OVCAR-5 ovarian = test system: OVCAR-5 ovarian
UACC-257 melanoma = test system: UACC-257 melanoma
HOP-92 NSCLC = test system: HOP-92 NSCLC
SF-539 CNS = test system: SF-539 CNS
BT-549 breast = test system: BT-549 breast
NCI-H460 lung = test system: NCI-H460 lung
UACC-62 melanoma = test system: UACC-62 melanoma
KM12 colon = test system: KM12 colon
HCT-15 colon = test system: HCT-15 colon

Brc1cc(CCOC2CCCCO2)c(-c2sccc2CCOC2CCCCO2)s1 (centres undefined)
TGI (SNB-19 CNS): > 100 µM
TGI (HT29 colon): > 100 µM
TGI (U251 CNS): > 100 µM
TGI (SK-MEL-5 melanoma): > 100 µM
TGI (SF-268 CNS): > 100 µM
TGI (HOP-62 NSCLC): > 100 µM
TGI (IGROV1 ovarian): > 100 µM
TGI (T-47D breast): > 100 µM
TGI (MDA-MB-231 breast): > 100 µM
TGI (NCI-H23 lung): > 100 µM
TGI (M14 melanoma): > 100 µM
TGI (K-562 leukemia): > 31.6 µM
TGI (SNB-75 CNS): > 100 µM
TGI (A549 NSCLC): > 100 µM
TGI (HS 578T breast): > 95.7 µM
TGI (HL-60(TB) leukemia): 42.3 µM
TGI (EKVX NSCLC): > 100 µM
TGI (SK-MEL-2 melanoma): 98.4 µM
TGI (HCT-116 colon): > 100 µM
TGI (MOLT-4 leukemia): > 61.3 µM
TGI (SW-620 colon): > 100 µM
TGI (HCC-2998 colon): > 100 µM
TGI (RPMI-8226 leukemia): > 100 µM
TGI (ACHN renal): > 100 µM
TGI (A498 renal): > 100 µM
TGI (CAKI-1 renal): > 100 µM
TGI (786-0 renal): > 100 µM
TGI (OVCAR-3 ovarian): > 100 µM
TGI (CCRF-CEM leukemia): > 82.5 µM
TGI (PC-3 prostate): > 100 µM
TGI (RXF 393 renal): 3 µM
TGI (SK-OV-3 ovarian): > 100 µM
TGI (NCI-H226 lung): > 100 µM
TGI (SR leukemia): 49.1 µM
TGI (SN12C renal): > 100 µM
TGI (DU-145 prostate): > 100 µM
TGI (OVCAR-8 ovarian): > 100 µM
TGI (COLO 205 colon): > 100 µM
TGI (MDA-N): > 100 µM
TGI (MDA-MB-435): > 100 µM
TGI (TK-10 renal): > 100 µM
TGI (NCI/ADR-RES ovarian): > 100 µM
TGI (OVCAR-4 ovarian): > 100 µM
TGI (SF-295 CNS): > 100 µM
TGI (UO-31 renal): > 42.1 µM
TGI (LOX IMVI melanoma): > 71.2 µM
TGI (MALME-3M melanoma): 87.7 µM
TGI (NCI-H522 lung): > 69.6 µM
TGI (SK-MEL-28 melanoma): > 100 µM
TGI (MCF7 breast): > 80 µM
TGI (OVCAR-5 ovarian): > 100 µM
TGI (UACC-257 melanoma): > 100 µM
TGI (HOP-92 NSCLC): > 100 µM
TGI (SF-539 CNS): > 100 µM
TGI (BT-549 breast): > 100 µM
TGI (NCI-H460 lung): > 100 µM
TGI (UACC-62 melanoma): > 100 µM
TGI (KM12 colon): > 100 µM
TGI (HCT-15 colon): > 100 µM
